Assay results published in article doi:10.1101/2024.08.19.608619, “Discovery of potent SARS-CoV-2 nsp3 macrodomain inhibitors uncovers lack of translation to cellular antiviral response” (bioRxiv, 2024).
“And” between values parts separate entries of the source, which are not always exact repeats. Identical values can stand only once.

How the values were obtained:
[1] = Hepatic microsomal stability, MLM; type: in vitro ADME; settings: In vitro mouse liver microsomal stability; for perc_remaining_no_cofactor: no cofactor; for microsomal CLint: liver microsomes
[2] = In vitro human hepatocyte stability; type: in vitro ADME
Excerpt: Supplement media-1.zip/Hepatocyte_Stability.csv, table | column: clint; t_half

Protein binding = type: in vitro ADME
Excerpt: Supplement media-1.zip/Protein_Binding.csv, table | column: fu; perc_bound; perc_free; perc_recovered

H2 (h) = target: T1, H2 (h) (Homo sapiens, UniProt P25021); test: In vitro CEREP profiling, H2 (h) (antagonist radioligand); type: binding; settings: test compound concentration 10 uM, read-out: perc_inhibition (% inhibition of the binding of a ligand specific for each target)
T1 construct: purchased Eurofins Cerep (SafetyScreen44), recognised from the panel format
Excerpt: (§1) Supplement media-1.zip/Safety_Panel_Profile.csv, table | column: perc_inhibition

MAO-A = target: T2, MAO-A (Rattus norvegicus, UniProt P21396); test: In vitro CEREP profiling, MAO-A (antagonist radioligand); type: binding; settings: test compound concentration 10 uM, read-out: perc_inhibition (% inhibition of the binding of a ligand specific for each target)
T2 construct: purchased Eurofins Cerep (SafetyScreen44), recognised from the panel format
T2 sequence (P21396 1-526): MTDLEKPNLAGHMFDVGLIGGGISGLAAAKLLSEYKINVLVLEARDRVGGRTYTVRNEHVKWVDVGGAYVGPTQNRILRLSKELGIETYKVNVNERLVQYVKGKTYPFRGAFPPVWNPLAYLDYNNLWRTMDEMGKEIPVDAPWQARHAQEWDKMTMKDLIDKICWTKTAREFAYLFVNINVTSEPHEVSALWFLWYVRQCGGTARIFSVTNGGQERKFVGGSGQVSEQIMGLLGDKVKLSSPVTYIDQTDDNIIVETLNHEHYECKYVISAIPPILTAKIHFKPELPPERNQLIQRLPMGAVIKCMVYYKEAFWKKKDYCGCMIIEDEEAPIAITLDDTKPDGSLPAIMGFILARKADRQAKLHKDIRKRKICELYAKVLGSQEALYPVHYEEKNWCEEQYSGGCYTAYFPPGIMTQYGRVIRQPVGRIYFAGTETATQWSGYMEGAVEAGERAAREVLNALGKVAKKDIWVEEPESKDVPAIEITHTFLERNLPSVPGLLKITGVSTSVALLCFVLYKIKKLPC
Excerpt: as §1

5-HT3 (h) = target: T3, 5-HT3 (h) (Homo sapiens, UniProt P46098); test: In vitro CEREP profiling, 5-HT3 (h) (antagonist radioligand); type: binding; settings: test compound concentration 10 uM, read-out: perc_inhibition, % inhibition of the binding of a ligand specific for each target
T3 construct: purchased Eurofins Cerep (SafetyScreen44), recognised from the panel format
T3 sequence (P46098 24-478): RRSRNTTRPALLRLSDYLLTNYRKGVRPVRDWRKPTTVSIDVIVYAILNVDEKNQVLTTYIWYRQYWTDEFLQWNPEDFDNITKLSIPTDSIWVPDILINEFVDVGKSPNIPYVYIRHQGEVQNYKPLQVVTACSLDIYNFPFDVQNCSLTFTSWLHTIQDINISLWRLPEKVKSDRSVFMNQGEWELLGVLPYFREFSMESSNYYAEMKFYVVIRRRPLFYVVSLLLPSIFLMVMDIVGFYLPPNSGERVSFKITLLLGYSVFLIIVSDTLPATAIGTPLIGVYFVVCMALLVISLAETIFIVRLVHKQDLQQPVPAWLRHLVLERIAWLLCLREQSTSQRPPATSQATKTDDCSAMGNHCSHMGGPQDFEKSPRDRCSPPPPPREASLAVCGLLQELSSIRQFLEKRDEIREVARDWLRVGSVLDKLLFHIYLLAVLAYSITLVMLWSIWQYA
Excerpt: as §1

BZD (central) = test: In vitro CEREP profiling, BZD (central) (agonist radioligand); type: binding; settings: test compound 10 uM
Excerpt: as §1

M3 (h) = target: T4, M3 (h) (Homo sapiens, UniProt P20309); test: In vitro CEREP profiling, M3 (h) (antagonist radioligand); type: binding; settings: test compound concentration 10 uM, read-out: perc_inhibition (% inhibition of the binding of a ligand specific for each target)
T4 construct: purchased Eurofins Cerep (SafetyScreen44), recognised from the panel format
Excerpt: as §1

CB2 (h) = target: T5, CB2 (h) (Homo sapiens, UniProt P34972); test: In vitro CEREP profiling, CB2 (h) (agonist radioligand); type: binding; settings: test compound 10 uM, read-out: perc_inhibition (% inhibition of the binding of a ligand specific for each target)
T5 construct: purchased Eurofins Cerep (SafetyScreen44), recognised from the panel format
Excerpt: as §1

[3] = target: T6, N neuronal alpha4beta2 (h) (Homo sapiens, UniProt P17787+P43681); test: In vitro CEREP profiling, N neuronal alpha4beta2 (h) (agonist radioligand); type: binding; settings: test compound concentration 10 uM, read-out: perc_inhibition (% inhibition of the binding of a ligand specific for each target)
T6 construct: purchased Eurofins Cerep (SafetyScreen44), recognised from the panel format
Excerpt: as §1

delta (DOP) (h) = target: T7, delta (DOP) (h) (Homo sapiens, UniProt P41143); test: In vitro CEREP profiling, delta (DOP) (h) (agonist radioligand); type: binding; settings: test compound concentration 10 uM, read-out: perc_inhibition (% inhibition of the binding of a ligand specific for each target)
T7 construct: purchased Eurofins Cerep (SafetyScreen44), recognised from the panel format
Excerpt: as §1

CCK1 (CCKA) (h) = target: T8, CCK1 (CCKA) (h) (Homo sapiens, UniProt P32238); test: In vitro CEREP profiling, CCK1 (CCKA) (h) (agonist radioligand); type: binding; settings: test compound 10 uM, read-out: perc_inhibition (% inhibition of the binding of a ligand specific for each target)
T8 construct: purchased Eurofins Cerep (SafetyScreen44), recognised from the panel format
T8 sequence (P32238 1-428): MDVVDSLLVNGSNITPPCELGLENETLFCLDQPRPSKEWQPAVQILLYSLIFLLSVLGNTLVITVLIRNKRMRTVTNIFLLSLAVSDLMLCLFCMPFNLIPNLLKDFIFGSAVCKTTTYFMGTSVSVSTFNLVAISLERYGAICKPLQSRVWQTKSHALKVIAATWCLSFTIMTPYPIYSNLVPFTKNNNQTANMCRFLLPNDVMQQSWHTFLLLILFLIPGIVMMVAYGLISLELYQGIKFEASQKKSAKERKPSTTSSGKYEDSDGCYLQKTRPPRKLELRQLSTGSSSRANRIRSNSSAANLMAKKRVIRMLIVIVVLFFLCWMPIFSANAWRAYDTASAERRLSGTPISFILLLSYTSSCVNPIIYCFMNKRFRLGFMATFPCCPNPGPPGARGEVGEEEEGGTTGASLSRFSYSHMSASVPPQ
Excerpt: as §1

[4] = In vitro rat SD liver microsomal stability; type: in vitro ADME
Excerpt: Supplement media-1.zip/Hepatic_Microsomal_Stability.csv, table | column: clint; t_half

[5] = target: T9, norepinephrine transporter (h) (Homo sapiens, UniProt P23975); test: In vitro CEREP profiling, norepinephrine transporter (h) (antagonist radioligand); type: binding; settings: test compound concentration 10 uM, read-out: perc_inhibition, % inhibition of the binding of a ligand specific for each target
T9 construct: purchased Eurofins Cerep (SafetyScreen44), recognised from the panel format
Excerpt: as §1

[6] = In vitro dog plasma protein binding
[7] = In vitro fetal calf serum protein binding
[8] = In vitro human plasma protein binding
[9] = In vitro mouse plasma protein binding
[10] = In vitro rat plasma protein binding

T9 sequence (P23975 whole entry): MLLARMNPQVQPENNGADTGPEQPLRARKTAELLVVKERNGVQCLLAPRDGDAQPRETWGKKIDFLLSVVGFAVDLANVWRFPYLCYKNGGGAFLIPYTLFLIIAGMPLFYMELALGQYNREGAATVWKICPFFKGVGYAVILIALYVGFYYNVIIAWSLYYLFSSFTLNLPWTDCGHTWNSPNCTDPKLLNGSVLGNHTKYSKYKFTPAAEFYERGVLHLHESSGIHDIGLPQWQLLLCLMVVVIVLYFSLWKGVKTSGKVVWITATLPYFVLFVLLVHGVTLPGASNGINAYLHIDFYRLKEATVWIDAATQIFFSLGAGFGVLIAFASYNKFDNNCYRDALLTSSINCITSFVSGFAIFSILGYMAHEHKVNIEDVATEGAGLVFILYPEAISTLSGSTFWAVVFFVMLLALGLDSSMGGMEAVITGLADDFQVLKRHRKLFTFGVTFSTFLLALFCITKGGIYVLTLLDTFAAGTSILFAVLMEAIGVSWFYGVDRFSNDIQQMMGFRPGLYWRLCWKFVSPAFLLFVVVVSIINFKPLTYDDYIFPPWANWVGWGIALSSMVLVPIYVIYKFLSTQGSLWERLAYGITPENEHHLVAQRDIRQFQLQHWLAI
T6 sequence (P43681 29-627 limits assumed): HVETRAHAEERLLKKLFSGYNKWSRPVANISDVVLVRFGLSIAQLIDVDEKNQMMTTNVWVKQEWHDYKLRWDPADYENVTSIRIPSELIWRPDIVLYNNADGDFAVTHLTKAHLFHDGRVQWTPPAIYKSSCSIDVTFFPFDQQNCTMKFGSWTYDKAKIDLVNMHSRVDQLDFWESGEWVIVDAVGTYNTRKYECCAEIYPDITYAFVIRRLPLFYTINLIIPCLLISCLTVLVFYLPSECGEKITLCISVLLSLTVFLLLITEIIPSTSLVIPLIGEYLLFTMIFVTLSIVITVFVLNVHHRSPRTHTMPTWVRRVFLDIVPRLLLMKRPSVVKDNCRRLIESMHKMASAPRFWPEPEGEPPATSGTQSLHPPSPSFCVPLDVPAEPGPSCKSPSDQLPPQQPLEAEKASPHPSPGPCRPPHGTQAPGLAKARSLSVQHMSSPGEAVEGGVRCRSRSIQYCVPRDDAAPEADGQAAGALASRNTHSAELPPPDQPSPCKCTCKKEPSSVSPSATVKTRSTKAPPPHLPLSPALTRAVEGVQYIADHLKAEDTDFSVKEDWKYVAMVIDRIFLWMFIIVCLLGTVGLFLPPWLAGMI
T6 sequence (P17787 26-502): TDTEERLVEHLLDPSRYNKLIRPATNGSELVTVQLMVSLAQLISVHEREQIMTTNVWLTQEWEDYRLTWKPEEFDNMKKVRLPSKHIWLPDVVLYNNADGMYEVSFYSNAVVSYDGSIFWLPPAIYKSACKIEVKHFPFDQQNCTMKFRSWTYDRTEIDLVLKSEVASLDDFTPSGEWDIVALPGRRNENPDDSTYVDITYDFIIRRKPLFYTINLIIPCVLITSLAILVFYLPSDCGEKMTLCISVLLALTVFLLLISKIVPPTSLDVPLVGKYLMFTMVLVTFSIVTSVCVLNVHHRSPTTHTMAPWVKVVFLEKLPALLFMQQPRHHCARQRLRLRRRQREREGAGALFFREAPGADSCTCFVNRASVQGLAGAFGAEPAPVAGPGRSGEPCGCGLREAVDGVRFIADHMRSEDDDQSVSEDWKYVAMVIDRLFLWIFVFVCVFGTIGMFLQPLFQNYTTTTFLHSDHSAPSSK
T7 sequence (P41143 whole entry): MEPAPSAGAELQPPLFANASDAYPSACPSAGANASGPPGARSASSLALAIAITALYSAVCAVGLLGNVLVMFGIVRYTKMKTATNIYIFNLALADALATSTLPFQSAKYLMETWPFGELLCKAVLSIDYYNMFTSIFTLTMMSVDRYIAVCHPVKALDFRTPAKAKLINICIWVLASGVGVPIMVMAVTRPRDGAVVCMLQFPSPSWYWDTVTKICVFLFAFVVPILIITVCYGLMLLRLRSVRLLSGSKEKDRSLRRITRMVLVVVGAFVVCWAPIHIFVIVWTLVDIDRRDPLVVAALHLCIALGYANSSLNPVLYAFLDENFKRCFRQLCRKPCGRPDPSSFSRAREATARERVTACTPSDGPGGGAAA
T4 sequence (P20309 whole entry): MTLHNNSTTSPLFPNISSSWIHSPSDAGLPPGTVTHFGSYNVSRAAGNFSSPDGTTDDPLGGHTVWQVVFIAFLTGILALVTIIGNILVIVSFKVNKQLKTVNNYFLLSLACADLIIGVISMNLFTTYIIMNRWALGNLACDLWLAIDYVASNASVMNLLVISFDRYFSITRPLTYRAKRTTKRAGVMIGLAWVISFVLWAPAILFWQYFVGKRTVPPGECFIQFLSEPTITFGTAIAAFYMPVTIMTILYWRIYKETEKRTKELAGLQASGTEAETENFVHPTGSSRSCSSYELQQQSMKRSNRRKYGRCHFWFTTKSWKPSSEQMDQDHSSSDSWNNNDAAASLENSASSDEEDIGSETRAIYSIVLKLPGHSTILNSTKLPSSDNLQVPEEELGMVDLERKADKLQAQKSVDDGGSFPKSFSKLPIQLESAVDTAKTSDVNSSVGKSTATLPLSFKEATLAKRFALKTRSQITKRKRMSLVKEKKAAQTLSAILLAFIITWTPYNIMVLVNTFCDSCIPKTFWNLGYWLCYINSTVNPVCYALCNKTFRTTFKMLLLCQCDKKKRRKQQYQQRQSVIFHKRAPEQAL
T5 sequence (P34972 whole entry): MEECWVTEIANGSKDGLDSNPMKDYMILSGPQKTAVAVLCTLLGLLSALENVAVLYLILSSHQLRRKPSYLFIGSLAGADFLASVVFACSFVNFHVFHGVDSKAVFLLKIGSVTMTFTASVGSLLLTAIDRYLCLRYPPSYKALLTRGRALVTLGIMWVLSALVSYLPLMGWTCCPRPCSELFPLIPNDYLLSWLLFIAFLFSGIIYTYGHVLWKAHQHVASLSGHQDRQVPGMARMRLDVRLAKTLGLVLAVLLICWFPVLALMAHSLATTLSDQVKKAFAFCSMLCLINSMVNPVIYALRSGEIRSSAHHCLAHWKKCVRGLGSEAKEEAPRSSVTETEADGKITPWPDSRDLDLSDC
T1 sequence (P25021 whole entry): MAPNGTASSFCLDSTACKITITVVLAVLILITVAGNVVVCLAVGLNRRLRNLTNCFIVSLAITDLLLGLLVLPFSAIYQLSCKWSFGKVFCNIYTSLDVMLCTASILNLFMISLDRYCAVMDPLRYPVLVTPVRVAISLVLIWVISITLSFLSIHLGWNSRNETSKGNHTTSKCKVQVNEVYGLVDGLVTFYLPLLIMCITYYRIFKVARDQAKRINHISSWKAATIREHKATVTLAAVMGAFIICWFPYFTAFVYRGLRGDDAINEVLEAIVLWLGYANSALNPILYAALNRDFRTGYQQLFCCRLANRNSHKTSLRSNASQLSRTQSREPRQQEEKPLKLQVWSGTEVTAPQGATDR

SMILES: CC(C)C(Nc1ncnc2[nH]c(C(=O)NC3CCN(C)C3)cc12)c1ccc2c(c1)S(=O)(=O)CCC2 (centres unmarked) [ASAP-0011198]
- perc_remaining [1]: 80.0%
- t_half [1]: 151.0 min
- perc_remaining_no_cofactor [1]: 92.0%
- microsomal CLint [1]: 11 µL/min/mg
- t_half [2]: > 231.0 min
- hepatocyte CLint ([2]; hepatocytes): < 3 µL/min/1e6 cells
- perc_bound (Protein binding; [6]): 83.5%
- perc_free (Protein binding; [6]): 16.5%
- perc_recovered (Protein binding; [6]): 87.93%
- fu (Protein binding; [7]): 0.173
- perc_bound (Protein binding; [7]): 86.0% and 82.7%
- perc_free (Protein binding; [7]): 14.0% and 17.3%
- perc_recovered (Protein binding; [7]): 61.17% and 107.7%
- fu (Protein binding; [8]): 0.271
- perc_bound (Protein binding; [8]): 74.5% and 72.9%
- perc_free (Protein binding; [8]): 25.5% and 27.1%
- perc_recovered (Protein binding; [8]): 81.11% and 116.7%
- fu (Protein binding; [9]): 0.184
- perc_bound (Protein binding; [9]): 90.1% and 81.6%
- perc_free (Protein binding; [9]): 9.91% and 18.4%
- perc_recovered (Protein binding; [9]): 88.65% and 93.8%
- fu (Protein binding; [10]): 0.164
- perc_bound (Protein binding; [10]): 87.5% and 83.6%
- perc_free (Protein binding; [10]): 12.5% and 16.4%
- perc_recovered (Protein binding; [10]): 93.33% and 104.0%
- fraction unbound (Protein binding; bovine, fetal calf serum, In vitro fetal calf serum protein binding): 0.14
- fraction unbound (Protein binding; dog, plasma, In vitro dog plasma protein binding): 0.165
- fraction unbound (Protein binding; human, plasma, In vitro human plasma protein binding): 0.255
- fraction unbound (Protein binding; mouse, plasma, In vitro mouse plasma protein binding): 0.099
- fraction unbound (Protein binding; rat, plasma, In vitro rat plasma protein binding): 0.125
- inhibition at 10 µM (H2 (h)): -9%
- inhibition at 10 µM (MAO-A): 3%
- inhibition at 10 µM (5-HT3 (h)): 2%
- perc_inhibition (% inhibition of the binding of a ligand specific for each target) (BZD (central)): 38%
- inhibition at 10 µM (M3 (h)): -9%
- inhibition at 10 µM (CB2 (h)): -8%
- inhibition at 10 µM [3]: -2%
- inhibition at 10 µM (delta (DOP) (h)): -16%
- inhibition at 10 µM (CCK1 (CCKA) (h)): 7%
- t_half [4]: 88.3 min
- microsomal CLint ([4]; Sprague-Dawley (SD), liver microsomes): 7.85 µL/min/mg
- inhibition at 10 µM [5]: -1%

SMILES: Cc1nn(C)cc1-c1cc2c(NC(c3ccc4c(c3)S(=O)(=O)CCC4)C(C)C)ncnc2[nH]1 (centres unmarked) [ASAP-0011446]
- perc_remaining [1]: 4.0%
- t_half [1]: 8.3 min
- perc_remaining_no_cofactor [1]: 104.0%
- microsomal CLint [1]: 202 µL/min/mg
- inhibition at 10 µM (H2 (h)): -4%
- inhibition at 10 µM (MAO-A): 5%
- inhibition at 10 µM (5-HT3 (h)): 6%
- perc_inhibition (% inhibition of the binding of a ligand specific for each target) (BZD (central)): 29%
- inhibition at 10 µM (M3 (h)): -9%
- inhibition at 10 µM (CB2 (h)): -8%
- inhibition at 10 µM [3]: -2%
- inhibition at 10 µM (delta (DOP) (h)): 16%
- inhibition at 10 µM (CCK1 (CCKA) (h)): -8%
- inhibition at 10 µM [5]: -2%
